Assays:
M. tuberculosis H37Rv = M. tuberculosis H37Rv growth inhibition (Alamar Blue MIC); format: cell-based, Mycobacterium tuberculosis; conditions: three different media
mouse VKORc1 = biological target: T1, mouse VKORc1 (Mus musculus, UniProt Q9CRC0); test: Assay for VKOR enzymatic activity in mouse liver microsomes; format: biochemical
T1 construct: Solubilized mouse liver microsomes (20 μL) were added to 180 μL of buffer; from tissue; host or cells: mouse liver (solubilized microsomes)
T1 sequence (Q9CRC0 1-161): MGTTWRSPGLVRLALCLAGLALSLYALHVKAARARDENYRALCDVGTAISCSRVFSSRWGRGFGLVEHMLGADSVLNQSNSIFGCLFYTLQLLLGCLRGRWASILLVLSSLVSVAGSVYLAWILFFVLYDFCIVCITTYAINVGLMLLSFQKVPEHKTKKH

PDI = biological target: T2, PDI (Homo sapiens, UniProt P07237); test: Insulin reductase activity assay, PDI; format: biochemical
T2 construct: His; purchased Prospec, East Brunswick, N.J

Erp5 = biological target: T3, Erp5 (Homo sapiens, UniProt Q15084); test: Insulin reductase activity assay, Erp5; format: biochemical
T3 construct: His; Passam F., Furie B., Furie B.C; (persons named as the source, not a vendor)
T3 sequence (Q15084 20-440): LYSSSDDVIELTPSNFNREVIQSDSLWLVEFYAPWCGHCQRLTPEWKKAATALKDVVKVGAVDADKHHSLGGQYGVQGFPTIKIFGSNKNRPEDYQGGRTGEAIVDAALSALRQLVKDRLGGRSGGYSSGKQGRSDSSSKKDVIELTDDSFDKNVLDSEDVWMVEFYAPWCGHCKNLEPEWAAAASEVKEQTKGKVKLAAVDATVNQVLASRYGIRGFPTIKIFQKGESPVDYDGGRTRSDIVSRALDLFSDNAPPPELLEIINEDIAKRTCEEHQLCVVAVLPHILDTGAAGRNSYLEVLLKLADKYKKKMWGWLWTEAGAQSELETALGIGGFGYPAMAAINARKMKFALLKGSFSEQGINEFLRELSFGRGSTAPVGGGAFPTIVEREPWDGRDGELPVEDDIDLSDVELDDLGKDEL

Erp57 = biological target: T4, Erp57 (Homo sapiens, UniProt P30101); test: Insulin reductase activity assay, Erp57; format: biochemical
T4 construct: His; purchased AbCam, Cambridge, Mass
T4 sequence (P30101 25-505): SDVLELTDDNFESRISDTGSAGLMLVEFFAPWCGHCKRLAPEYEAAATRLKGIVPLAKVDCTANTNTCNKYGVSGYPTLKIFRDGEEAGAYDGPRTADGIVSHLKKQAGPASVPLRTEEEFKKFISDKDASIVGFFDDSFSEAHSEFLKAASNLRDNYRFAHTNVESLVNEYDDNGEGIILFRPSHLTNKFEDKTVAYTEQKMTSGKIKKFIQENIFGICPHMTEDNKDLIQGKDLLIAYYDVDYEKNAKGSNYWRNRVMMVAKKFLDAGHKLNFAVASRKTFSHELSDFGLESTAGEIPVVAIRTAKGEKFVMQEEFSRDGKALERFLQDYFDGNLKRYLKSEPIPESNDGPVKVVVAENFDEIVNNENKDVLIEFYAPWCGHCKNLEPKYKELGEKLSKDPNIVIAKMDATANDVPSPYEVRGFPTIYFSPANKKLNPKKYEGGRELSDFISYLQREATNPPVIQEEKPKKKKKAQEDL

Erp72 = biological target: T5, Erp72 (Homo sapiens, UniProt P13667); test: Insulin reductase activity assay, Erp72; format: biochemical
T5 construct: His; purchased Enzo, Farmingdale, N.Y
T5 sequence (P13667 21-645): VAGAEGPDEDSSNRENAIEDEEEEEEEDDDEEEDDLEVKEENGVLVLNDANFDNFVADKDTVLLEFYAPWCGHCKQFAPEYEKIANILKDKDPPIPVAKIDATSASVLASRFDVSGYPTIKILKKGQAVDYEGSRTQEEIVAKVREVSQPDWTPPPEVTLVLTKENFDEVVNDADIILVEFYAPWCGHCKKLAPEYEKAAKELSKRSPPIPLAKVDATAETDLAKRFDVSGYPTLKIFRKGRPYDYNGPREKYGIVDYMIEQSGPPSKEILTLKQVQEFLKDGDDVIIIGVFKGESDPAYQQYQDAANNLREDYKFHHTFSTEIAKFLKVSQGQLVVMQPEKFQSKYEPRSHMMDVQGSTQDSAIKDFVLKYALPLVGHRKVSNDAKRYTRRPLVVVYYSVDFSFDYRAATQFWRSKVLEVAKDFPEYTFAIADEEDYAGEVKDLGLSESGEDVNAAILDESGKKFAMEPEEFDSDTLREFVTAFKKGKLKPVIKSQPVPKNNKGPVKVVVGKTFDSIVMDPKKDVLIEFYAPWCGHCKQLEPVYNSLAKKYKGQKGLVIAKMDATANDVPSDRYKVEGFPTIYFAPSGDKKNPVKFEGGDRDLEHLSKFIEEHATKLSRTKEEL

purified EcDsbB = biological target: T6, purified EcDsbB (Escherichia coli, UniProt P0A6M2, C49V/C8A); test: In vitro assay of purified DsbB (ubiquinone reduction); format: biochemical, E. coli; conditions: IC50 (μM), Table 9
T6 construct: made in house; host or cells: E. coli
Text: In addition to the in vivo assays of MICs, we have purified DsbB from E. coli and assessed the concentration dependence for inhibition of the enzyme's activity in oxidizing DsbA.
In this assay, we determine the concentration of a compound necessary to reduce the activity of purified DsbB enzyme by 50%. DsbB uses ubiquinone as a co-factor for the generation of disulfide bonds. DsbB oxidizes DsbA and reduces ubiquinone. When it is in the oxidized state, ubiquinone absorbs strongly at 275 nm but it has a diminished absorbance when it is in the reduced state at the same wavelength. Therefore, DsbB activity can be measured by the reduction of ubiquinone and this is assessed by following the decrease of absorbance of ubiquinone at 275 nm. The assay uses 20 μM purified and DTT-reduced DsbA, 20 uM UbQ-5, and 2 nM purified DsbB at pH6.0.
We tested several compounds for their inhibitory effect on EcDsbB-mediated ubiquinone reduction using purified enzymes. In this assay, reduced DsbA provides the source of electrons that are used by EcDsbB to reduce ubiquinone-5. The compounds show dose-dependent inhibition of EcDsbB with half-maximal inhibitory concentrations (IC50) in the low-μM range.

DsbB = biological target: T7, DsbB (Escherichia coli, UniProt P0A6M2, C49V/C8A); test: cell-based; format: cell-based, E. coli; conditions: for EC50 RATIO (EC50 compound 16/EC50): E. coli DHB7935, liquid media
T7 construct: expressed in transfected cells; host or cells: E. coli DHB7935 (HK295 ΔdsbB λatt::malF-lacZ102, φ80::pDSW206dsbBhis6-c-myc)

E. coli DsbB = E. coli DsbB (Escherichia coli, UniProt P0A6M2); test: Blue/white beta-galactosidase agar assay, DsbB-based E. coli strain; format: cell-based; conditions: agar assay
VKOR of M. tuberculosis = biological target: T8, VKOR of M. tuberculosis (Mycobacterium tuberculosis, UniProt I6X5W1); format: cell-based; conditions: agar assay
T8 sequence (I6X5W1 1-210): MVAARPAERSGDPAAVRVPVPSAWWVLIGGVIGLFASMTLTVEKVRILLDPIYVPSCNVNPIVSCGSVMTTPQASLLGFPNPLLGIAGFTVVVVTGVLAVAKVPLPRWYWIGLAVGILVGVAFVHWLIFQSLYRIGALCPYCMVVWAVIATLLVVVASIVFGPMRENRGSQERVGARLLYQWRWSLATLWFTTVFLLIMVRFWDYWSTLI

T6 sequence (P0A6M2 whole entry C8A/C49V): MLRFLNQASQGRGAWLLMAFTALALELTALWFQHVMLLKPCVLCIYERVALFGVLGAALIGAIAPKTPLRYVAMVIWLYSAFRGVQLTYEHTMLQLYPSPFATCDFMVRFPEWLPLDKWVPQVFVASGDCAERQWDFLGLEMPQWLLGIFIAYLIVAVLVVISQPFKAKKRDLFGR
T7 sequence (P0A6M2 whole entry C8A/C49V): as above
Chain of E. coli DsbB (P0A6M2 whole entry): as the sequence (P0A6M2 whole entry C8A/C49V) above, with A8C, V49C counted along it
T2 sequence (P07237 18-508, species assumed): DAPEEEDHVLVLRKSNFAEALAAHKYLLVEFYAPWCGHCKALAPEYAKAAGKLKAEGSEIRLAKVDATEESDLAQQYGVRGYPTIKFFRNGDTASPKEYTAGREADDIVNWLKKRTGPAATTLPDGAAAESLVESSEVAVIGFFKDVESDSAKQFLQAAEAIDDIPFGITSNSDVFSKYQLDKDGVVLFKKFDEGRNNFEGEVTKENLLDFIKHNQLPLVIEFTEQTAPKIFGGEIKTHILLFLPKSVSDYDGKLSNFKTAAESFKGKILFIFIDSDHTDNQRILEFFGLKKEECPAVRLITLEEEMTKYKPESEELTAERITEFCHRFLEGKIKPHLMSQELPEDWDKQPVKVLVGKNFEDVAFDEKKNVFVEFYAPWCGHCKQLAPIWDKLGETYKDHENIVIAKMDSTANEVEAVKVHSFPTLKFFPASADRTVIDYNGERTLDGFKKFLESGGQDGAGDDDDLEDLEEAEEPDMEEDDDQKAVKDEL

SMILES	EC50 (DsbB) [µM]	also measured
CNC(=O)C#CCC1C(=O)c2ccccc2C1=O [Compound 1]		effect on growth of M. tuberculosis (in words) (M. tuberculosis H37Rv): relatively strong effect in only one of the three media; inhibition of VKOR activity (mouse VKORc1): inhibited; inhibition of PDI activity (PDI): inhibited; inhibition of Erp5 activity (Erp5): inhibited; inhibition of Erp57 activity (Erp57): inhibited; inhibition of Erp72 activity (Erp72): inhibited
CCCCNc1c(Cl)cnn(-c2ccccc2)c1=O [Compound 13]	30.4	IC50 (purified EcDsbB): 8.12 µM
Cc1oncc1C(=O)Nc1ccccc1 [Compound 4]		effect on growth of M. tuberculosis (in words) (M. tuberculosis H37Rv): no effects
N#Cc1cccc(Cn2ncc(Cl)c(Cl)c2=O)c1 [Compound 16.9]	509	
Cc1cccc(Cn2ncc(Cl)c(Cl)c2=O)c1 [Compound 16.4]	13.9	IC50 (purified EcDsbB): 1.27 µM; EC50 RATIO (EC50 compound 16/EC50) (DsbB): 0.37
COC(C)(C)C#CC(=O)c1cccc2ccccc12 [Compound 23]		effect on growth of M. tuberculosis (in words) (M. tuberculosis H37Rv): inhibitor of M. tuberculosis growth; inhibition of the DsbB-based strain, in words (E. coli DsbB): weak inhibitor
O=c1c(Cl)c(Cl)cnn1Cc1ccccc1C(F)(F)F [Compound 16.35, 4,5-dichloro-2-(2-(trifluoromethyl)benzyl)pyridazin-3(2H)-one]	2.81	
COc1c(Cl)cnn(-c2cccc(C)c2)c1=O [Compound 17]	72.8	IC50 (purified EcDsbB): 5.42 µM
O=c1c(N2CCCC2)c(Cl)cnn1-c1ccccc1 [Compound 15]	28.1	IC50 (purified EcDsbB): 8.24 µM
O=c1c(Cl)c(Cl)cnn1Cc1cccs1 [Compound 16.41, 4,5-dichloro-2-(thiophen-2-ylmethyl)pyridazin-3(2H)-one]	33.1	
O=c1c(Cl)c(Br)cnn1Cc1ccccc1Cl [Compound 16.44, 5-bromo-4-chloro-2-(2-chlorobenzyl)pyridazin-3(2H)-one]	0.32	
O=c1c(Cl)c(Cl)cnn1Cc1ccccc1F [Compound 16.23]	3.09	EC50 RATIO (EC50 compound 16/EC50) (DsbB): 1.65
O=c1c(Br)c(Br)cnn1Cc1ccccc1Cl [Compound 16.27, 4,5-dibromo-2-(2-chlorobenzyl)pyridazin-3(2H)-one]	0.025	
O=c1cc(Cl)cnn1Cc1ccccc1Cl [Compound 16.25, 5-chloro-2-(2-chlorobenzyl)pyridazin-3(2H)-one]	8.37	
O=C1c2ccccc2C(=O)C1c1ccc(Br)cc1 [brominedione, reference compound]		inhibition in the VKOR screen (MtbVKOR-based strain), in words (VKOR of M. tuberculosis): strong inhibitor; inhibition of the DsbB-based strain, in words (E. coli DsbB): not of the DsbB-based strain
O=c1c(Cl)c(Cl)cnn1Cc1c(Cl)cccc1Cl [Compound 16.37, 4,5-dichloro-2-(2,6-dichlorobenzyl)pyridazin-3(2H)-one]	6570	
O=c1c(Cl)c(Cl)cnn1Cc1c(F)cccc1Cl [Compound 16.22]	18.1	

SMILES	EC50 (DsbB) [µM]	also measured
CCOc1c(Cl)cnn(-c2ccccc2)c1=O [Compound 14]	25.6	IC50 (purified EcDsbB): 6.57 µM
O=c1c(Cl)c(Cl)cnn1Cc1ccc([N+](=O)[O-])cc1 [Compound 16.8]	38.7	
O=c1c(Cl)c(Cl)cnn1Cc1sccc1Cl [Compound 16.42, 4,5-dichloro-2-((3-chlorothiophen-2-yl)methyl)pyridazin-3(2H)-one]	1.45	
O=c1c(Cl)c(Cl)cnn1Cc1ncccc1Cl [Compound 16.40, 4,5-dichloro-2-((3-chloropyridin-2-yl)methyl)pyridazin-3(2H)-one]	10.8	
COc1cccc(Cn2ncc(Cl)c(Cl)c2=O)c1 [Compound 16.11]	232	
Cc1nnc(-c2cccc(C)c2C)c(C)n1 [Compound 8]		effect on growth of M. tuberculosis (in words) (M. tuberculosis H37Rv): no effects
O=c1c(Br)c(Br)cnn1Cc1ccccc1 [Compound 16.17]	13.2	
O=c1c(Br)c(Cl)cnn1Cc1ccccc1Cl [Compound 16.43, 4-bromo-5-chloro-2-(2-chlorobenzyl)pyridazin-3(2H)-one]	0.29	
O=c1c(Cl)c(Cl)cnn1-c1ccccc1 [Compound 16.2]	2.04	IC50 (purified EcDsbB): 2.34 µM; fold more inhibitory than compound 16 (DsbB): 10 fold; EC50 RATIO (EC50 compound 16/EC50) (DsbB): 2.49
O=c1c(Cl)c(Cl)cnn1Cc1ccccc1Br [Compound 16.12]	0.47	fold more inhibitory than compound 16 (DsbB): 10 fold; EC50 RATIO (EC50 compound 16/EC50) (DsbB): 10.77
Cc1c(Cl)cnn(Cc2ccccc2Cl)c1=O [Compound 16.26, 5-chloro-2-(2-chlorobenzyl)-4-methylpyridazin-3(2H)-one]	18.7	
Cc1ccccc1Cn1ncc(Cl)c(Cl)c1=O [Compound 16.13]	3.56	EC50 RATIO (EC50 compound 16/EC50) (DsbB): 1.43
O=c1c(Cl)c(Cl)cnn1Cc1ccncc1Cl [Compound 16.39]	15.2	
O=c1c(Cl)c(Cl)cnn1-c1ccccc1F [Compound 16.24]	13.7	EC50 RATIO (EC50 compound 16/EC50) (DsbB): 0.73
N#Cc1ccccc1Cn1ncc(Cl)c(Cl)c1=O [Compound 16.14]	13.2	EC50 RATIO (EC50 compound 16/EC50) (DsbB): 0.39
O=c1c(Cl)c(Cl)cnn1-c1ccccc1Cl [Compound 16.20]	1.34	EC50 RATIO (EC50 compound 16/EC50) (DsbB): 3.80
O=c1c(Cl)c(Cl)cnn1Cc1ccccc1OC(F)(F)F [Compound 16.36, 4,5-dichloro-2-(2-(trifluoromethoxy)benzyl)pyridazin-3(2)-one]	7.12	
